Laboratory results taken from the Deep4Chem optical property database.

Experiment: solvent given as SMILES
Conditions: in C1CCCCC1

SMILES | emission maximum [nm]
CC(C)(C)c1ccc2c3c(c4ccc(C(C)(C)C)cc4c2c1)=[N+]1C(=C(c2ccccc2)c2c(Br)c4c5ccc(C(C)(C)C)cc5c5cc(C(C)(C)C)ccc5c4n2[B-]1(F)F)C=3Br | 711
CCC1=C(C)C2=C(C)c3cccn3[B-](F)(F)[N+]2=C1C | 515
CC1=[N+]2C(=Cc3ccc(C)n3[B-]2(F)F)C=C1c1cc2n(c1)[B-](F)(F)[N+]1=CC=CC1=C2c1c(C)cc(C)cc1C | 636
Oc1ccccc1/N=C/c1ccccc1Oc1ccccc1 | 413
CC(=O)c1ccc(NC(=O)c2ccc(N(C)C)cc2)cc1 | 345

Same assay, conditions: in C1CCOC1

SMILES | emission maximum [nm]
CC(C)(C)c1ccc2c3c(c4ccc(C(C)(C)C)cc4c2c1)=[N+]1C(=C(c2ccccc2)c2c(Br)c4c5ccc(C(C)(C)C)cc5c5cc(C(C)(C)C)ccc5c4n2[B-]1(F)F)C=3Br | 715
c1ccc(N(c2ccccc2)c2ccc(-c3cccc4nc5ccccc5cc34)cc2)cc1 | 535
C(=C1c2ccccc2CCc2ccccc21)c1ccc(-c2cc(-c3ccc(C=C4c5ccccc5CCc5ccccc54)cc3)cc(-c3ccc(C=C4c5ccccc5CCc5ccccc54)cc3)c2)cc1 | 403
COc1ccc(/C=C/c2cc(/C=C/c3ccc(OC)cc3)nc(/C=C/c3ccc(C(F)(F)F)cc3)n2)cc1 | 436
Oc1ccccc1/N=C/c1ccccc1Oc1ccccc1 | 412
Cn1cccc1-c1ccc(C#N)cc1 | 383
CC(=O)c1ccc(NC(=O)c2ccc(N(C)C)cc2)cc1 | 468

Same assay, conditions: in C1COCCO1

SMILES | emission maximum [nm]
Oc1ccccc1/N=C/c1ccccc1Oc1ccccc1 | 410

Same assay, conditions: in CC#N

SMILES | emission maximum [nm]
CC(C)(C)c1ccc2c3c(c4ccc(C(C)(C)C)cc4c2c1)=[N+]1C(=C(c2ccccc2)c2c(Br)c4c5ccc(C(C)(C)C)cc5c5cc(C(C)(C)C)ccc5c4n2[B-]1(F)F)C=3Br | 714
CCC1=C(C)C2=Cc3c4ccccc4c4n3[B-](c3ccc5cc6ccccc6cc5c3)(Oc3ccccc3-4)[N+]2=C1C (configuration not stated) | 635
CN(C)c1ccc(-c2nc3nccnc3n2-c2ccc(N(C)C)cc2)cc1 | 472
c1ccc(N(c2ccccc2)c2ccc(-c3cccc4nc5ccccc5cc34)cc2)cc1 | 572
C(#Cc1nccnc1C#Cc1ccccc1)c1ccccc1 | 380
COc1ccc(/C=C/c2cc(/C=C/c3ccc(OC)cc3)nc(/C=C/c3ccc(C(F)(F)F)cc3)n2)cc1 | 463
Oc1ccccc1/N=C/c1ccccc1Oc1ccccc1 | 410
Cn1cccc1-c1ccc(C#N)cc1 | 407
CC(=O)c1ccc(NC(=O)c2ccc(N(C)C)cc2)cc1 | 550
CCN(CC)c1ccc2c(-c3ccccc3C(=O)[O-])c3ccc(=[N+](CC)CC)cc-3oc2c1 | 579

Same assay, conditions: in CC(C)=O

SMILES | emission maximum [nm]
CCC1=C(C)C2=C(C)c3cccn3[B-](F)(F)[N+]2=C1C | 512.5
COc1ccc(/C=C/c2cc(/C=C/c3ccc(OC)cc3)nc(/C=C/c3ccc(C(F)(F)F)cc3)n2)cc1 | 452
Oc1ccccc1/N=C/c1ccccc1Oc1ccccc1 | 410

Same assay, conditions: in CC(C)CO

SMILES | emission maximum [nm]
Oc1ccccc1/N=C/c1ccccc1Oc1ccccc1 | 409

Same assay, conditions: in CC(C)O

SMILES | emission maximum [nm]
Oc1ccccc1/N=C/c1ccccc1Oc1ccccc1 | 406

Same assay, conditions: in CC(C)OC(C)C

SMILES | emission maximum [nm]
c1ccc(N(c2ccccc2)c2ccc(-c3cccc4nc5ccccc5cc34)cc2)cc1 | 496

Same assay, conditions: in CCCCC

SMILES | emission maximum [nm]
Oc1ccccc1/N=C/c1ccccc1Oc1ccccc1 | 425

Same assay, conditions: in CCCCCC

SMILES | emission maximum [nm]
O=S(=O)(/N=c1\oc2cccc3c4c(-c5ccccc5)oc5cccc(c(c1-c1ccccc1)c23)c54)C(F)(F)F | 535
CCC1=C(C)C2=Cc3c4ccccc4c4n3[B-](c3ccc5cc6ccccc6cc5c3)(Oc3ccccc3-4)[N+]2=C1C (configuration not stated) | 636
c1ccc(N(c2ccccc2)c2ccc(-c3cccc4nc5ccccc5cc34)cc2)cc1 | 462
Cn1cccc1-c1ccc(C#N)cc1 | 357

Same assay, conditions: in CCCCCCC

SMILES | emission maximum [nm]
COc1ccc(/C=C/c2cc(/C=C/c3ccc(OC)cc3)nc(/C=C/c3ccc(C(F)(F)F)cc3)n2)cc1 | 398

Same assay, conditions: in CCCCCCCCO

SMILES | emission maximum [nm]
Oc1ccccc1/N=C/c1ccccc1Oc1ccccc1 | 414

Same assay, conditions: in CCCCCCCO

SMILES | emission maximum [nm]
Oc1ccccc1/N=C/c1ccccc1Oc1ccccc1 | 410

Same assay, conditions: in CCCCCCO

SMILES | emission maximum [nm]
Oc1ccccc1/N=C/c1ccccc1Oc1ccccc1 | 410

Same assay, conditions: in CCCCO

SMILES | emission maximum [nm]
Oc1ccccc1/N=C/c1ccccc1Oc1ccccc1 | 395

Same assay, conditions: in CCCCOC(C)=O

SMILES | emission maximum [nm]
Oc1ccccc1/N=C/c1ccccc1Oc1ccccc1 | 409

Same assay, conditions: in CCCCOCCCC

SMILES | emission maximum [nm]
c1ccc(N(c2ccccc2)c2ccc(-c3cccc4nc5ccccc5cc34)cc2)cc1 | 491
Cn1cccc1-c1ccc(C#N)cc1 | 367

Same assay, conditions: in CCCO

SMILES | emission maximum [nm]
Oc1ccccc1/N=C/c1ccccc1Oc1ccccc1 | 410

Same assay, conditions: in CCN(CC)CC

SMILES | emission maximum [nm]
c1ccc(N(c2ccccc2)c2ccc(-c3cccc4nc5ccccc5cc34)cc2)cc1 | 479

Same assay, conditions: in CCO

emission maximum [nm] | SMILES
676 | CN1/C(=C/C=C(/C=C/c2sc3ccccc3[n+]2C)c2ccccc2)Sc2ccccc21
457 | Cc1c(COC(=O)c2ccccc2)n2c(OCC(=O)c3ccccc3)c(C)c(=O)n2c1=O
571 | CCN(CC)c1ccc2c(-c3ccccc3C(=O)[O-])c3ccc(=[N+](CC)CC)cc-3oc2c1

SMILES | emission maximum [nm]
CCC1=C(C)C2=C(C)c3cccn3[B-](F)(F)[N+]2=C1C | 513.5
Oc1ccccc1/N=C/c1ccccc1Oc1ccccc1 | 408

Same assay, conditions: in CCOC(C)=O

SMILES | emission maximum [nm]
CCC1=C(C)C2=C(C)c3cccn3[B-](F)(F)[N+]2=C1C | 512.5
c1ccc(N(c2ccccc2)c2ccc(-c3cccc4nc5ccccc5cc34)cc2)cc1 | 532
CC1=[N+]2C(=Cc3ccc(C)n3[B-]2(F)F)C=C1c1cc2n(c1)[B-](F)(F)[N+]1=CC=CC1=C2c1c(C)cc(C)cc1C | 683
Oc1ccccc1/N=C/c1ccccc1Oc1ccccc1 | 400
CCn1ncc2c3c(C#N)c4c5ccccc5n(CC)c4nc3ccc21 | 476

Same assay, conditions: in CCOCC

SMILES | emission maximum [nm]
c1ccc(N(c2ccccc2)c2ccc(-c3cccc4nc5ccccc5cc34)cc2)cc1 | 507
Oc1ccccc1/N=C/c1ccccc1Oc1ccccc1 | 420
Cn1cccc1-c1ccc(C#N)cc1 | 371
